Assay results reported in US6355799B1, “Substituted benzene compounds, process for their preparation, and herbicidal and defoliant compositions containing them” (ISK Americas Incorporated, priority 1997, dated 2002).

What was measured:
Format in all cases: in vivo
[1] = test system: large crabgrass (Digitaria sanguinalis, DIGSA); test: Pre-emerge test, greenhouse herbicide activity screening; settings: pre-emerge, rated 14 days after application, 0 = no damage, 100 = complete death
Method in brief: (§1)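 Compounds in acetone were track-sprayed at 15–1000 g ai/ha: pre-emergence onto soil sown the previous day, then top-watered to incorporate and later bottom-watered; post-emergence onto 2–3 leaf plants with 0.25% v/v surfactant, bottom-watered only. Ratings on a 0–100 phytotoxicity scale were taken at day 14.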

[2] = test system: barnyardgrass (Echinochloa crus-galli, ECHCG); test: as above; settings: pre-emerge, rated 14 days after application, 0 = no damage, 100 = complete death
Method in brief: as §1

[3] = test system: green foxtail (Setaria viridis, SETVI); test: as above; settings: pre-emerge, rated 14 days after application, 0 = no damage, 100 = complete death
Method in brief: as §1

[4] = test system: ivyleaf morningglory (Ipomoea hederacea, IPOHE); test: as above; settings: pre-emerge, rated 14 days after application, 0 = no damage, 100 = complete death
Method in brief: as §1

[5] = test system: velvetleaf (Abutilon theophrasti, ABUTH); test: as above; settings: pre-emerge, rated 14 days after application, 0 = no damage, 100 = complete death
Method in brief: as §1

[6] = test system: lambsquarters (Chenopodium album, CHEAL); test: as above; settings: pre-emerge, rated 14 days after application, 0 = no damage, 100 = complete death
Method in brief: as §1

[7] = test system: sicklepod (Cassia obtusifolia, CASOB); test: as above; settings: pre-emerge, rated 14 days after application, 0 = no damage, 100 = complete death
Method in brief: as §1

[8] = test system: johnsongrass (Sorghum halepense, SORHA); test: as above; settings: pre-emerge, rated 14 days after application, 0 = no damage, 100 = complete death
Method in brief: as §1

[9] = test system: field corn (Zea mays L., var. Dekalb 535, CORN); test: Post-emerge test, crop safety; settings: phytotoxicity rating 0-100 (0 no damage, 100 complete death), 14 days after application
Method in brief: (§2)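 Rating: 0–100 visual injury, 14 DAA. Application: acetone, 187 l/ha, 15–1000 g ai/ha, flat-fan track sprayer with nozzle 40–45 cm above soil or canopy. Post-emerge runs used 0.25% v/v surfactant on 2–3 leaf plants.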

[10] = test system: upland rice (Oryza sp., var. Tebonnet, RICE); test: Post-emerge test, crop safety; settings: phytotoxicity rating 0-100 (0 no damage, 100 complete death), 14 days after application
Method in brief: as §2

[11] = test system: redroot pigweed (Amaranthus retroflexus, AMARE); test: Pre-emerge test, greenhouse herbicide activity screening; settings: pre-emerge, rated 14 days after application, 0 = no damage, 100 = complete death
Method in brief: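 Compounds in acetone were track-sprayed at 187 l/ha, 15–1000 g ai/ha, onto sandy loam pots. Pre-emerge seeds were sown one day before spraying, with surface watering afterwards. Post-emerge plants were at the 2–3 leaf stage and sprayed with 0.25% v/v non-ionic surfactant. Injury was rated 0–100 at 14 days.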

[12] = test system: field corn (Zea mays L., var. Dekalb 535, CORN); test: Pre-emerge test, crop safety; settings: pre-emerge, rated 14 days after application, 0 = no damage, 100 = complete death
Method in brief: as §2

[13] = test system: upland rice (Oryza sp., var. Tebonnet, RICE); test: Pre-emerge test, crop safety; settings: pre-emerge, rated 14 days after application, 0 = no damage, 100 = complete death
Method in brief: as §2

[14] = test system: large crabgrass (Digitaria sanguinalis, DIGSA); test: Post-emerge test, greenhouse herbicide activity screening; settings: phytotoxicity rating 0-100 (0 no damage, 100 complete death), 14 days after application
Method in brief: (§3)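 Plants grown in 10 cm pots of sandy loam mix received acetone-dissolved compounds through a moving flat-fan nozzle. Doses ranged from 15 to 1000 g ai/ha. Pre-emerge pots were seeded one day earlier, post-emerge pots 8–21 days earlier. Fourteen days on, each pot was graded 0–100 for damage.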

[15] = test system: common ragweed (Ambrosia artemisizfolia L., AMBEL); test: as above; settings: phytotoxicity rating 0-100 (0 no damage, 100 complete death), 14 days after application
Method in brief: as §3

[16] = test system: barnyardgrass (Echinochloa crus-galli, ECHCG); test: as above; settings: phytotoxicity rating 0-100 (0 no damage, 100 complete death), 14 days after application
Method in brief: as §3

[17] = test system: green foxtail (Setaria viridis, SETVI); test: as above; settings: phytotoxicity rating 0-100 (0 no damage, 100 complete death), 14 days after application
Method in brief: as §3

[18] = test system: ivyleaf morningglory (Ipomoea hederacea, IPOHE); test: as above; settings: phytotoxicity rating 0-100 (0 no damage, 100 complete death), 14 days after application
Method in brief: as §3

[19] = test system: velvetleaf (Abutilon theophrasti, ABUTH); test: as above; settings: phytotoxicity rating 0-100 (0 no damage, 100 complete death), 14 days after application
Method in brief: as §3

[20] = test system: lambsquarters (Chenopodium album, CHEAL); test: as above; settings: phytotoxicity rating 0-100 (0 no damage, 100 complete death), 14 days after application
Method in brief: as §3

[21] = test system: sicklepod (Cassia obtusifolia, CASOB); test: as above; settings: phytotoxicity rating 0-100 (0 no damage, 100 complete death), 14 days after application
Method in brief: as §3

[22] = test system: johnsongrass (Sorghum halepense, SORHA); test: as above; settings: phytotoxicity rating 0-100 (0 no damage, 100 complete death), 14 days after application
Method in brief: as §3

[23] = test system: redroot pigweed (Amaranthus retroflexus, AMARE); test: as above; settings: phytotoxicity rating 0-100 (0 no damage, 100 complete death), 14 days after application
Method in brief: as §3

SMILES: CCOC(=O)C(C)Nc1c(OC)c(Cl)cc(F)c1-n1c(=O)cc(C(F)(F)F)n(C)c1=O (stereo not shown) [Compound 1-55]
- Pre-emerge Herbicidal Activity DIGSA (phytotoxicity rating, scale 0-100) ([1]; 63 g ai/ha): 50
- Pre-emerge Herbicidal Activity DIGSA (phytotoxicity rating, scale 0-100) ([1]; 250 g ai/ha): 50
- Pre-emerge Herbicidal Activity ECHCG (phytotoxicity rating, scale 0-100) ([2]; 63 g ai/ha): 10
- Pre-emerge Herbicidal Activity ECHCG (phytotoxicity rating, scale 0-100) ([2]; 250 g ai/ha): 10
- Pre-emerge Herbicidal Activity SETVI (phytotoxicity rating, scale 0-100) ([3]; 63 g ai/ha): 0
- Pre-emerge Herbicidal Activity SETVI (phytotoxicity rating, scale 0-100) ([3]; 250 g ai/ha): 0
- Pre-emerge Herbicidal Activity IPOHE (phytotoxicity rating, scale 0-100) ([4]; 63 g ai/ha): 0
- Pre-emerge Herbicidal Activity IPOHE (phytotoxicity rating, scale 0-100) ([4]; 250 g ai/ha): 0
- Pre-emerge Herbicidal Activity ABUTH (phytotoxicity rating, scale 0-100) ([5]; 63 g ai/ha): 90
- Pre-emerge Herbicidal Activity ABUTH (phytotoxicity rating, scale 0-100) ([5]; 250 g ai/ha): 90
- Pre-emerge Herbicidal Activity CHEAL (phytotoxicity rating, scale 0-100) ([6]; 63 g ai/ha): 95
- Pre-emerge Herbicidal Activity CHEAL (phytotoxicity rating, scale 0-100) ([6]; 250 g ai/ha): 95
- Pre-emerge Herbicidal Activity CASOB (phytotoxicity rating, scale 0-100) ([7]; 63 g ai/ha): 0
- Pre-emerge Herbicidal Activity CASOB (phytotoxicity rating, scale 0-100) ([7]; 250 g ai/ha): 0
- Pre-emerge Herbicidal Activity SORHA (phytotoxicity rating, scale 0-100) ([8]; 63 g ai/ha): 20
- Pre-emerge Herbicidal Activity SORHA (phytotoxicity rating, scale 0-100) ([8]; 250 g ai/ha): 20
- Post-emerge Herbicidal Activity CORN (crop damage) ([9]; 63 g ai/ha): 0
- Post-emerge Herbicidal Activity CORN (crop damage) ([9]; 250 g ai/ha): 10
- Post-emerge Herbicidal Activity RICE (crop damage) ([10]; 63 g ai/ha): 0
- Post-emerge Herbicidal Activity RICE (crop damage) ([10]; 250 g ai/ha): 0
- Pre-emerge Herbicidal Activity AMARE (phytotoxicity rating, scale 0-100) ([11]; 63 g ai/ha): 70
- Pre-emerge Herbicidal Activity AMARE (phytotoxicity rating, scale 0-100) ([11]; 250 g ai/ha): 70
- Pre-emerge crop damage CORN (phytotoxicity rating, scale 0-100) ([12]; 63 g ai/ha): 10
- Pre-emerge crop damage CORN (phytotoxicity rating, scale 0-100) ([12]; 250 g ai/ha): 10
- Pre-emerge crop damage RICE (phytotoxicity rating, scale 0-100) ([13]; 63 g ai/ha): 0
- Pre-emerge crop damage RICE (phytotoxicity rating, scale 0-100) ([13]; 250 g ai/ha): 0
- Post-emerge Herbicidal Activity DIGSA ([14]; 63 g ai/ha): 0
- Post-emerge Herbicidal Activity DIGSA ([14]; 250 g ai/ha): 30
- Post-emerge Herbicidal Activity AMBEL ([15]; 63 g ai/ha): 70
- Post-emerge Herbicidal Activity AMBEL ([15]; 250 g ai/ha): 50
- Post-emerge Herbicidal Activity ECHCG ([16]; 63 g ai/ha): 0
- Post-emerge Herbicidal Activity ECHCG ([16]; 250 g ai/ha): 0
- Post-emerge Herbicidal Activity SETVI ([17]; 63 g ai/ha): 0
- Post-emerge Herbicidal Activity SETVI ([17]; 250 g ai/ha): 40
- Post-emerge Herbicidal Activity IPOHE ([18]; 63 g ai/ha): 30
- Post-emerge Herbicidal Activity IPOHE ([18]; 250 g ai/ha): 95
- Post-emerge Herbicidal Activity ABUTH ([19]; 63 g ai/ha): 80
- Post-emerge Herbicidal Activity ABUTH ([19]; 250 g ai/ha): 90
- Post-emerge Herbicidal Activity CHEAL ([20]; 63 g ai/ha): 0
- Post-emerge Herbicidal Activity CHEAL ([20]; 250 g ai/ha): 20
- Post-emerge Herbicidal Activity CASOB ([21]; 63 g ai/ha): 10
- Post-emerge Herbicidal Activity CASOB ([21]; 250 g ai/ha): 20
- Post-emerge Herbicidal Activity SORHA ([22]; 63 g ai/ha): 0
- Post-emerge Herbicidal Activity SORHA ([22]; 250 g ai/ha): 0
- Post-emerge Herbicidal Activity AMARE ([23]; 63 g ai/ha): 10
- Post-emerge Herbicidal Activity AMARE ([23]; 250 g ai/ha): 10
